Data on three compounds can be found in patent publication US20120251511A1, “COMPOSITION AND PRODUCTS FOR ENABLING THE PRODUCTION OF EQUOL IN VIVO” (priority 2011, published 2012).

For series [1], the system named is androgenic alopecia (hair loss). The experiment in a line: Observed effects on androgenic alopecia (hair loss). The series is classed as in vivo, human. The note with it: inulin supplements 4 grams daily, one individual. An excerpt:
The goal of the first experiment, performed in June 2006, was to investigate the ability for the BLDG formula to show both objective and subjective results. Objective results included blood and urine samples testing for the presence of equol. Subjective results included the documentation of observed effects on androgenic alopecia (hair loss) and acne vulgaris.
The test subject was a person, in good overall health. Subject was physically active, had adequate nutrition and was not taking any drugs or supplements that were known to cause hair loss or acne.
The subject was experiencing a high degree of shedding of the hair from areas of the scalp consistent with male pattern baldness. Miniaturization of the hair follicles on the scalp was noticeable along the hair line, part line and vertex upon close observation. […] Generally, the subject would have been considered a Class II on the Norwood-Hamilton scale, but with some increased vertex thinning more attributable to a Class III.

Series [2] can be described thus: HPLC/EC determination of daidzein and equol levels in blood serum and urine after the BLDG formula. As to conditions: for concentration at 1 day / concentration at 7 day / concentration at 21 day: human, oral; for concentration at 1 day: Day 1, plasma; for concentration at 7 day: Day 7, plasma. On the procedure: The subject's diet was limited to 20 grams of saturated fat per day. The subject also consumed a healthy amount of grains, fruits and vegetables.
Blood serum and urine samples were taken on days 1, 7 and 21 and the samples were sent to an independent laboratory for analysis.
Equol in the blood serum was tested (untreated) as unbound to sex hormone-binding globulin (SHBG).

For series [3] the following is noted: in vitro; cited from earlier work.
Setting [4] is: Day 21, urine, BLDG formula regimen equivalent to Example 1.
Where [5] appears, read: plasma, unbound equol, Mean, BLDG formula regimen equivalent to Example 1.
Setting [6] is: plasma, unbound equol, ng/ml I, BLDG formula regimen equivalent to Example 1.
Where [7] appears, read: plasma, unbound equol, ng/ml II, BLDG formula regimen equivalent to Example 1.

With inulin, the “effect of added inulin on BLDG dosage needed” value in series [1] is reported as “able to cut his BLDG dosage in half”.

For `O=c1c(-c2ccc(O)cc2)coc2cc(O)ccc12` [Daidzein, 4,7-Dihydroxyisoflavone], in series [2] (setting [4]), the “daidzein, Mean” value was 43974.11 ng/mL; the “daidzein, ng/ml I” value worked out at 44246.59 ng/mL; the “daidzein, ng/ml II” value was found to be 43701.63 ng/mL. Besides, the “increase in daidzein levels between Day 7 and Day 21” value in series [2] (blood serum, BLDG formula) came out at 45%.

With `Oc1ccc([C@H]2COc3cc(O)ccc3C2)cc1` [S-equol], the “blood levels that may be required to fully mitigate DHT at normal levels of circulation in men” value in series [3] was 100 ng/mL. The “increase in equol concentration between Day 7 and Day 21” value in series [2] (blood serum, BLDG formula) was 3%. Further, the concentration at 1 day in series [2] (setting [5]), in series [2] (setting [6]) and in series [2] (setting [7]) was 0 µg/mL each time. Moreover, the results for the concentration at 7 day in series [2] (setting [5]), in series [2] (setting [6]) and in series [2] (setting [7]) were 0.127 µg/mL, 0.137 µg/mL and 0.117 µg/mL, respectively. The concentration at 21 day in series [2] (plasma, unbound equol, Mean, Day 21, plasma, BLDG formula regimen equivalent to Example 1) stood at 0.131 µg/mL; in series [2] (plasma, unbound equol, ng/ml I, Day 21, plasma, BLDG formula regimen equivalent to Example 1), 0.122 µg/mL; in series [2] (plasma, unbound equol, ng/ml II, Day 21, plasma, BLDG formula regimen equivalent to Example 1), 0.141 µg/mL; in series [2] (urine, equol, Mean, Day 21, urine, BLDG formula regimen equivalent to Example 1) it was 0.638 µg/mL; in series [2] (urine, equol, ng/ml I, Day 21, urine, BLDG formula regimen equivalent to Example 1), 0.613 µg/mL; in series [2] (urine, equol, ng/ml II, Day 21, urine, BLDG formula regimen equivalent to Example 1), 0.662 µg/mL.
